Reference: US20080221205A1, “FURAN DERIVATIVES FOR PREVENTING AND CURING OSTEOPOROSIS AND PHARMACEUTICAL COMPOSITIONS CONTAINING THE SAME” (priority 2002, published 2008)

Legend:
osteoprotegerin (OPG) = test: Osteoprotegerin (OPG) expression in MG63 cells, OPG ELISA; format: cell-based, human; settings: concentration not given
Method: In the following tests, three kinds of cell lines were used. The human osteosarcoma cell lines, MG-63 (ATCC No. CRL-1427) and HOS (ATCC No. CRL-1543), and mouse muscle C2C12 muscle cells (ATCC No. CRL-1772) were purchased from ATCC (American Type Culture Collection, Rockville, USA), and cultured in Dulbecco's modified Eagle's medium (DMEM) supplemented with 10% fetal bovine serum (FBS).
When MG63 cells grew confluently on 96-well plates, […] of FBS-free DMEM containing various concentrations of the Compound 1 was added to each well. After incubation for 16 hrs, the culture supernatants were collected. The amount of OPG released into the medium was determined using an OPG ELISA kit.

[1] = system: ovariectomized white mice; test: Bone mineral densitometer test, therapeutic effect on osteoporosis; format: in vivo; settings: test group
Method: After ovariectomy, female white mice weighing about 250 g were bred for four weeks. After checking the onset of osteoporosis in the mice, each of the mice was orally administered with 220 μl of the Compound 1 dissolved in 30 ml water for four weeks.
BMD measurement was performed before ovariectomy and every week for eight weeks after ovariectomy, using a bone mineral densitometer, XCT 540 Research SA made in Germany.
After anesthetizing the mice being bred in cages by intraperitoneal injection of a mixture of Ketamine HCl (ketara 10 mg/kg) and 2% xylazine HCl (Roupun 0.15 ml/kg), BMD measurement was made at a voxel size of 0.1×0.1 mm^2 and threshold values of 280 mg/cm^2 for cancellous bone and 500 mg/cm^2 for compact bone. The analysis sites at the proximal tibias were determined by Scout scans (10 mm/sec), and BMD was measured at three slices at the determined sites by CT scans (7 mm/sec). BMD measurement was performed twice or more at the same site every week during eight weeks after ovariectomy.

O=Cc1ccc(CO)o1 [Compound 1, 5-hydroxymethylfuran-2-carboxyaldehyde]
Expression of osteoprotegerin (OPG) in osteoblasts (in words) (osteoprotegerin (OPG)): increases the expression of osteoprotegerin (OPG)
Change in BMD, % ([1]; Week 1 after ovariectomy (before administration), control −3): −2.9%
Change in BMD, % ([1]; Week 3 after ovariectomy (before administration), control −15): −14%
Change in BMD, % ([1]; Week 4 after ovariectomy (start of oral 220 μl administration), control −19): −17%
Change in BMD, % ([1]; Week 7 after ovariectomy, oral 220 μl from week 4, control −25.9): −19%
